The record followed here is publication PMC8669469, “A Novel Locally c-di-GMP-Controlled Exopolysaccharide Synthase Required for Bacteriophage N4 Infection of Escherichia coli” (mBio, 2021).

One may read the Kd as the concentration at which binding is half-saturated. Read a low Kd as higher affinity.

The target in the test is T1, NfrB (Escherichia coli, UniProt P0AFA5).
T1 construct: soluble MshEN domain, NfrB^414-745
Nature of the test: microscale thermophoresis with purified protein; DRaCALA with […]-c-di-GMP and competition by unlabeled c-di-GMP. The test is classed as binding.

T1 sequence (P0AFA5 414-745): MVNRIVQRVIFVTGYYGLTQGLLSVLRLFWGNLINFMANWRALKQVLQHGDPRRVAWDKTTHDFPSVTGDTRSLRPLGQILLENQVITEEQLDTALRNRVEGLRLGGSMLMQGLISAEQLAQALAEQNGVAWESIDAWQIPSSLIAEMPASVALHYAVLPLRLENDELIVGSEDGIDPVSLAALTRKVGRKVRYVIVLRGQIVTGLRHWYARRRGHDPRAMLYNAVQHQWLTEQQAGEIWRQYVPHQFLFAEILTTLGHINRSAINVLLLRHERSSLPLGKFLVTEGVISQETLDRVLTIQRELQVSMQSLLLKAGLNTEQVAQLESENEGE

The compound `Nc1nc2c(ncn2[C@@H]2O[C@@H]3CO[P@](=O)(O)O[C@H]4[C@@H](O)[C@H](n5cnc6c(=O)[nH]c(N)nc65)O[C@@H]4CO[P@](=O)(O)O[C@H]3[C@H]2O)c(=O)[nH]1` [c-di-GMP] gave an equilibrium dissociation constant (Kd) of 1 ± 0.35 µM.
